Assay results published in patent US8552013B2, “Heterocyclic compounds based on N6-substituted adenine, methods of their preparation, their use for preparation of drugs, cosmetic preparations and growth regulators, pharmaceutical preparations, cosmetic preparations and growth regulators containing these compounds” (USTAV Experimentalni Botaniky Akademie Ved Ceske Republiky, priority 2001, dated 2013).
pIC50: −log10 of the molar value. Read-outs that look alike come from different tables or passages of the source.

Experiments:
[1] = system: T-lymphoblastic leukemia cell line CEM; test: Calcein AM cytotoxicity, CEM; assay type: cell-based, human
Excerpt: (§1) One of the parameters used, as the basis for cytotoxicity assays, is the metabolic activity of viable cells. For example, a microtiter assay, which uses the Calcein AM, is now widely used to quantitate cell proliferation and cytotoxicity. For instance, this assay is used in drug screening programs and in chemosensitivity testing. Because only metabolically active cells cleave Calcein AM, these assays detect viable cells exclusively. The quantity of reduced Calcein AM corresponds to the number of vital cells in the culture.
(§2) The cells were maintained in Nunc/Corning 80 cm^2 plastic tissue culture flasks and cultured in cell culture medium (DMEM with 5 g/l glucose, 2 mM glutamine, 100 U/ml penicillin, 100 μg/ml streptomycin, 10% fetal calf serum and sodium bicarbonate).
(§3) The cell suspensions that were prepared and diluted according to the particular cell type and the expected target cell density (2.500-30.000 cells per well based on cell growth characteristics) were added by pipette (80 μl) into 96/well microtiter plates. Inoculates were allowed a pre-incubation period of 24 hours at 37° C. and 5% CO2 for stabilisation. Four-fold dilutions of the intended test concentration were added at time zero in 20 μl aliquots to the microtiter plate wells. Usually, test compound was evaluated at six 4-fold dilutions. […] All drug concentrations were examined in duplicates. Incubations of cells with the test compounds lasted for 72 hours at 37° C., in 5% CO2 atmosphere and 100% humidity. At the end of incubation period, the cells were assayed by using the Calcein AM. Ten microliters of the stock solution were pipetted into each well and incubated further for 1 hours. Fluorescence (FD) was measured with the Labsystem FIA Reader Fluoroscan Ascent (UK).

[2] = system: promyelocytic HL-60 leukemia; test: Calcein AM cytotoxicity, HL60; assay type: cell-based, human; details: Homo sapiens, read-out: IC 50, HL60
Excerpt: as §1, §2, §3

[3] = system: breast carcinoma cell line MCF-7; test: Calcein AM cytotoxicity, MCF7; assay type: cell-based, human; details: Homo sapiens, read-out: IC 50, MCF7
Excerpt: as §1, §2, §3

[4] = system: K-562; test: Calcein AM cytotoxicity, K-562; assay type: cell-based; details: Homo sapiens, K562, 72 h, read-out: IC 50, K-562
Excerpt: as §1, §2, §3

[5] = system: Amaranthus caudatus cotyledon/hypocotyl explants; test: Amaranthus bioassay, betacyanin content; assay type: in vivo; details: betacyanin content at the concentration with highest activity
Protocol: Standard Amaranthus bioassay was performed with several modifications. The seeds of Amaranthus caudatus var. atropurpurea were surface-sterilised in 10% N-chlorobenzenesulfonamide (w/v) for 10 min and washed 5 times in deionized water. They were placed in 14 cm Petri dishes containing paper tissues saturated with deionized water. After 72 h of cultivation at 25° C. in darkness, the roots of the seedlings were cut off. The explants, consisting of two cotyledons and hypocotyls, were placed in 5 cm Petri dishes on two layers of filter paper soaked in 1 ml of incubation medium containing 10 μmol NA2HPO4-KH2PO4, pH 6.8, 5 μmol tyrosine and the cytokinin to be tested. There were 20 explants per dish. The procedure was carried out under a green safe light in a darkroom. After a 48 h of incubation at 25° C. in darkness, betacyanin was extracted by freezing the explants in 4 ml […] acetic acid. The concentration of betacyanin was determined by comparing the absorbance at 537 nm and 620 nm as follows: ΔA=[…] nm-A620 nm. From the obtained data, the concentration with highest activity was selected for each compound tested. Relative activity of the compound at this concentration was calculated (Tab. 6). […] The values shown in table 8 are means of five replicates and the entire test was repeated twice. The cytokinins to be tested were dissolved in dimethylsulfoxide (DMSO) and the solution brought up to 10^-3M with distilled water. This stock was further diluted in the respective media used for the biotest to concentrations ranging from 10^-8M to 10^-4M.

[6] = system: Triticum aestivum cv. Hereward leaf tips; test: Retention of chlorophyll in excised wheat leaf tips; assay type: in vivo; details: chlorophyll retention at the concentration with highest activity
Protocol: Seeds of winter wheat, Triticum aestivum cv. Hereward, were washed under running water for 24 hours and then sown on vermiculite soaked with Knop's solution. They were placed in the grown chamber at 25° C. with a 16/8 h light period at 50 μmol.m^−2.s^−1. After 7 days, the first leaf was fully developed and the second leaf had started to grow. A tip section of the first leaf, approximately 35 mm long, was removed from 5 seedlings and trimmed slightly to a combined weight of 100 mg. The basal ends of the five leaf tips were placed in the wells of a microtiter polystyrene plate containing 150 μl of a cytokinin solution each. The entire plate was inserted into a plastic box lined with paper tissues soaked in distilled water to prevent leaf sections from drying out. After a 96 h incubation in the dark at 25° C., the leaves were removed and chlorophyll extracted by heating at 80° C. for 10 min in 5 ml of 80% ethanol (v/v). The sample volume was then restored to 5 ml by the addition of 80% ethanol (v/v). The absorbency of the extract was recorded at 665 nm. In addition, chlorophyll extracts from fresh leaves and leaf tips incubated in deionised water were measured. From the obtained data, the concentration with highest activity was selected for each compound tested. Relative activity of the compound at this concentration was calculated (Tab. 6). The activity obtained for 10^−4 M 6-benzylaminopurine (BAP) was postulated as 100%. The values shown are means of five replicates and the whole experiment was repeated twice. The cytokinins to be tested were dissolved in dimethylsulfoxide (DMSO) and the solution brought up to 10^−3M with distilled water. This stock was further diluted in distilled water to concentrations ranging from 10^−8M to 10^−4M.

[7] = system: tobacco callus Nicotiana tabacum L. cv. Wisconsin 38; test: Cytokinin-dependent tobacco callus growth; assay type: cell-based; details: fresh callus weight at the concentration with highest activity
Protocol: Cytokinin-dependent tobacco callus Nicotiana tabacum L. cv. Wisconsin 38 was maintained at 25° C. in darkness on modified Murashige-Skoog medium, containing per 1 liter: 4 μmol nicotinic acid, 2.4 μmol pyridoxine hydrochloride, 1.2 μmol thiamine, 26.6 μmol glycine, 1.37 μmol glutamine, 1.8 μmol myo-inositol, 30 g of sucrose, 8 g of agar, 5.37 μmol α-naphtylacetic acid (NAA) and 0.5 μmol benzylaminopurine (BAP). Subcultivation was carried out every three weeks. Fourteen days before the bioassay, the callus tissue was transferred to the media without 6-benzylaminopurine (BAP). Biological activity was determined from the increase in fresh callus weight after four weeks of cultivation. Five replicates were prepared for each cytokinin concentration and the entire test was repeated twice. From the obtained data, the concentration with highest activity was selected for each compound tested. Relative activity of the compound at this concentration was calculated (Tab. 6). The activity obtained for 10^−4 M 6-benzylaminopurine (BAP) was postulated as 100%. The cytokinins to be tested were dissolved in dimethylsulfoxide (DMSO) and the solution brought up to 10^−3M with distilled water. This stock was further diluted in the respective media used for the biotest to concentrations ranging from 10^−8M to 10^−4M.

[8] = system: HOS; test: Calcein AM cytotoxicity, HOS; assay type: cell-based; details: Homo sapiens, HOS, 72 h
Excerpt: as §1
Human T-lymphoblastic leukemia cell line CEM; promyelocytic HL-60 and monocytic U937 leukemias; breast carcinoma cell lines MCF-7, BT549, MDA-MB-231; glioblastoma U87MG cells; cervical carcinoma cells HELA; sarcoma cells U2OS and Saos2; hepatocellular carcinoma HepG2; mouse fibroblasts NIH3T3; mouse immortalized bone marrow macrophages B2.4 and B10A.4; P388D1 and L1210 leukemia; B16 and B16F10 melanomas were used for routine screening of compounds. The cells were maintained in Nunc/Corning 80 cm^2 plastic tissue culture flasks and cultured in cell culture medium (DMEM with 5 g/l glucose, 2 mM glutamine, 100 U/ml penicillin, 100 μg/ml streptomycin, 10% fetal calf serum and sodium bicarbonate).
The cell suspensions that were prepared and diluted according to the particular cell type and the expected target cell density (2.500-30.000 cells per well based on cell growth characteristics) were added by pipette (80 μl) into 96/well microtiter plates. Inoculates were allowed a pre-incubation period of 24 hours at 37° C. and 5% CO2 for stabilisation. Four-fold dilutions of the intended test concentration were added at time zero in 20 μl aliquots to the microtiter plate wells. Usually, test compound was evaluated at six 4-fold dilutions. In routine testing, the highest well concentration was […], but it can be the matter of change dependent on the agent. All drug concentrations were examined in duplicates. Incubations of cells with the test compounds lasted for 72 hours at 37° C., in 5% CO2 atmosphere and 100% humidity. At the end of incubation period, the cells were assayed by using the Calcein AM. Ten microliters of the stock solution were pipetted into each well and incubated further for 1 hours. Fluorescence (FD) was measured with the Labsystem FIA Reader Fluoroscan Ascent (UK). The tumour cell survival (GI50) was calculated using the following equitation: TCS═(FDdrug exposed well/mean FDcontrol wells)×100%. The GI50 value, the drug concentration lethal to 50% of the tumour cells, was calculated from the obtained dose response curves (FIG. 1).

[9] = system: Rosa hybrida (pot rose cultivar) explants; test: In vitro and post vitro shoot multiplication and rooting of rose; assay type: in vivo
Protocol: The aim of this experiment was to test whether the new compounds are of practical use in tissue culture practice. The multiplication rate was investigated and the post vitro effects on rooting were examined. Rosa hybrida (pot rose cultivar) was cultured in 350 ml vessels with a screw on polycarbonate lid. Each culture vessel contained 100 ml autoclaved medium (120° C., 20 min). The cultures were maintained at 23±2° C. under a 16 h photoperiod at 40 μM m^−2 s^−1 PAR. The basal medium (BMR) contained Murashige and Skoog (1962) macroelements, microelements and vitamins, 95 μM NaFeEDTA, 555 μM myo-inositol, 111 mM sucrose, 1.332 mM glycine, 684 μM L-glutamine and 7 g/l agar. This medium was supplemented with 10 μM BA, mT, oMeOBAP or mMeOBAP (compound no. 14 and 15, respectively). The control medium didn't contain any cytokinin. After a culture period of 8 weeks, the number of induced shoots per explant was determined, as well as root number/explant and total root length/explant. The roots were removed and the explants (shoot clusters) were planted in unfertilised peat. After four weeks of acclimatising in a fog unit, root number and root length was determined.

[10] = Ex vitro, four weeks of acclimatising

| Structure (SMILES) | pIC50 ([1]; Homo sapiens, 72 h) | pIC50 ([2]; HL-60, 72 h) | pIC50 ([3]; MCF7, 72 h) | pIC50 [4] | activity (%) [10^−5 mol · l^−1 BAP = 100%] [5] | Activity (%) [10^−4 mol · l^−1 BAP = 100%] [6] | Activity (%) [10^−4 mol · l^−1 BAP = 100%] [7] | further results |
| --- | --- | --- | --- | --- | --- | --- | --- | --- |
| Nc1ncnc2nc[nH]c12 [Adenine] | < 3.78 | < 3.78 | < 3.78 | < 3.78 |  |  |  |  |
| Fc1ccc(CNc2ncnc3nc[nH]c23)cc1 [6-(4-fluorobenzylamino)purine] |  |  |  |  | 44 (±4) % | 95.5 (±3.5) % | 122 (±12) % | pIC50 [8]: < 3.78 |
| COc1ccccc1CNc1ncnc2nc[nH]c12 [6-(2-methoxybenzylamino)purine] |  |  |  |  | 77 (±5) % | 269 (±12) % | 79 (±5) % | pIC50 [8]: < 3.78; Root number per plant [9, 10]: 2.5; Total root length per plant [9, 10]: 8.5 cm; Flower number per explant ([9]; In vitro, 10 μM, 8 weeks): 0.29; Number of new shoots per explant ([9]; In vitro, 10 μM, 8 weeks): 1.0; Root number per explant ([9]; In vitro, 10 μM, 8 weeks): 0.0; Total root length per explant ([9]; In vitro, 10 μM, 8 weeks): 0.0 cm |
| C/C(=C\CNc1ncnc2[nH]cnc12)CO [Zeatin, reference compound] |  |  |  |  |  |  |  | pIC50 ([1]; Homo sapiens, 72 hours): < 3.78; pIC50 ([2]; HL-60, 72 hours): < 3.78; pIC50 ([3]; MCF7, 72 hours): < 3.78 |
| O=[N+]([O-])c1cccc(CNc2ncnc3nc[nH]c23)c1 [6-(3-nitrobenzylamino)purine] | < 3.78 | < 3.78 | < 3.78 | < 3.78 | 66 (±7) % | 60 (±15) % |  |  |
| COc1cc(CNc2ncnc3nc[nH]c23)cc(OC)c1 [6-(3,5-dimethoxybenzylamino)purine] | < 3.78 | < 3.78 | < 3.78 | < 3.78 | 1.5 (±1) % | 16 (±1) % |  |  |
| COc1ccc(CNc2ncnc3nc[nH]c23)c(OC)c1 [6-(2,4-dimethoxybenzylamino)purine] |  |  |  |  | 12 (±2) % | 26 (±11) % | 21 (±5) % |  |
| Clc1ccc(CNc2ncnc3nc[nH]c23)cc1Cl [6-(3,4-dichlorobenzylamino)purine] |  |  |  |  | 63 (±10) % | 117 (±22) % | 45 (±7) % |  |
| Brc1ccc(CNc2ncnc3nc[nH]c23)cc1 [6-(4-bromobenzylamino)purine] |  |  |  |  | 17 (±7) % | 30 (±15) % | 15 (±9) % |  |
| Fc1ccc(CNc2ncnc3nc[nH]c23)c(F)c1 [6-(2,4-difluorobenzylamino)purine] | 3.85 | < 3.78 | < 3.78 | < 3.78 | 88 (±7) % | 139 (±2) % | 95 (±1) % | pIC50 ([1]; 72 hours, listed as 2,4diFBAP): 3.84 |
| Fc1ccc(CNc2ncnc3nc[nH]c23)c(F)c1F [6-(2,3,4-trifluorobenzylamino)purine] |  | < 3.78 | < 3.78 | < 3.78 | 94 (±3) % | 131 (±22) % | 76 (±4) % |  |
